Results published in patent US5830855A, “Lipodepsipeptides as antifungal and fungicidal agents” (priority 1996, dated 1998).
Numbered stars: 1 amine (or outer) side, 2 acyl side, 3 side chain; on linkers, the order of the positions; unused ones are H or OH. Bridge positions count the residues as written; N and C are the ends. Square brackets hold non-standard residues; d marks the D form. Peptide text beside a SMILES is read from it. * marks the point of attachment. ξ: configuration not given here. Asp(3S-OH) = N[C@H](C(=O)O)[C@H](O)C(=O)O; Thr(4-Cl) = N[C@H](C(=O)O)[C@H](O)CCl; ξAsp(3ξ-OH) = NC(C(=O)O)C(O)C(=O)O; X3 = O=C(C(N[*:1])C(O)CCl)[*:2]; X1 = CCCCCCCCC[C@@H](O)CC(=O)*; X2 = CCCCCCCCCCCC(O)CC(=O)*; dDab = NCC[C@@H](N)C(=O)O; Dab = NCC[CH](N)C(=O)O; Orn = NCCC[CH](N)C(=O)O; hSer = N[CH](CCO)C(=O)O; Dhb = C/C=C(\N)C(=O)O

Tests used:
[1] = tested on: pokeweed mitogen (PWM)-induced lymphocyte proliferation; assay: PWM-induced lymphocyte proliferation ([3H]-thymidine incorporation); assay type: cell-based, human
Procedure: Lipodepsipeptide for Immunosuppression Experiments: SR-E was purified as previously described in Bidwai, A. P., Bachmann, R. C. and Takemoto, J. Y., "Mechanism of action of Pseudomonas syringae phytotoxin syringomycin". Plant Physiol. 83:39-43 (1987). A stock solution (10 mg per ml) was prepared in RPMI1640 culture media, aliquoted and stored frozen at -20°.
Lymphocyte stimulation: Lymphocyte stimulation was performed with three different mitogens: phytohemagglutinin (PHA), pokeweed mitogen (PWM), and monoclonal antibody to CD3 (anti-CD3). […]
Mitogen-induced lymphocyte proliferation: Peripheral blood mononuclear cells (MNC) (containing lymphocytes and monocytes) were separated by Ficoll-Hypaque density-gradient centrifugation using techniques well known in the art. Mitogen-induced lymphocyte proliferation was determined as previously described in Singh, V. K., "Stimulatory effect of corticotropin-releasing neurohormone on human lymphocyte proliferation and interleukin-2 receptor expression". […]
[^3 H]-thymadine Incorporation: Cells were pulse-labeled for 4 hours with 0.5 μCi/well of [^3 H]methyl-thymidine (spec. act.=25 Ci/mmol from Amersham Intl.). […] To each vial, 2 ml of CytoScint fluid (ICN Biomedicals) was dispensed and the radioactivity determined using a liquid scintillation counter (Tri-Carb, Packard). […]

[2] = tested on: Sheep erythrocytes; assay: Erythrocyte toxicity (sheep RBC hemolysis, hemoglobin release); assay type: cell-based; details: 37° C. 1 hr, FIG. 1 and 2
Procedure: Erythrocyte Toxicity: Sheep red blood cell (RBC) hemolysis was used to assess erythrocyte toxicity of the CLPs and AmB. RBCs (MicroBio Products, Inc., Salt Lake City, Utah) were washed four times with phosphate-buffered-saline (PBS) by centrifugation at 800× g for 10 min and adjusted to 1×10^8 cells/ml as previously described by Chavanet, P., V. Joly, D. Rigaud, J. Bolard, C. Carbon, and P. Yeni. 1994. Influence of diet on experimental toxicity of amphotericin B deoxycholate. Antimicrob. Agents Chemother. 38(5):963-968. RBCs and a 2× concentration of SR-E, ST-B or SS-A in PBS were mixed in a 1:1 ratio and incubated at 37° C. for 1 hr. After incubation, cells were pelleted by centrifugation at 800× g for 10 min and the supernatant was collected and the absorbance at 550 nm was determined. […] Distilled water and PBS were used as lysis and hemoglobin retention controls, respectfully, as described by National Committee for Clinical Laboratory Standards. 1992. Reference method for broth dilution antifungal susceptibility testing of yeasts; proposed standard, NCCLS document M27-P (ISBN 1-56238-186-5). NCCLS, Villanova.

Compound	inhibition of PWM response ([1]; 1.14 μM)	suppression of PWM response ([1]; 5.72 μM, p=0.017)	erythrocyte toxicity (lysis, hemoglobin release) [2]
C/C=C1\NC(=O)[C@H](Cc2ccccc2)NC(=O)[C@H](CCCN=C(N)N)NC(=O)[C@@H](CCN)NC(=O)[C@H](CCN)NC(=O)[C@@H](CO)NC(=O)[C@@H](NC(=O)C[C@H](O)CCCCCCCCC)COC(=O)[C@H]([C@H](O)CCl)NC(=O)[C@H]([C@H](O)C(=O)O)NC1=O [SR-E, Syringomycin-E] (X1-S[dS][Dab][dDab]RF[Dhb][Asp(3S-OH)][Thr(4-Cl)]; ester 1-C)	significantly inhibited	60%	
C/C=C1\NC(=O)C(C(C)O)NC(=O)C(CCCN)NC(=O)C(CCO)NC(=O)CNC(=O)C(CCN)NC(=O)C(NC(=O)CC(O)CCCCCCCCCCC)COC(=O)C(C(O)CCl)NC(=O)C(C(O)C(=O)O)NC1=O (stereo not drawn) [ST-B, Syringotoxin B] (X2-S[Dab]G[hSer][Orn]T[Dhb][ξAsp(3ξ-OH)][X3]; ester 1-C; configuration not given here)			least toxic of the three CLPs
